Reference: US20160031796A1, “ANTIMUSCARINIC COMPOUND HAVING A LOW CONTENT OF IMPURITIES” (Dipharma Francis S.r.l., priority 2014, published 2016)
Structures can show the parent of a compound that is named as a salt.

Legend:
[1] = stability studies of Fesoterodine fumarate samples under various temperature and humidity conditions, HPLC analysis; type: physicochemical
Source text: Various samples of Fesoterodine fumarate salt of formula (I) have been taken from a batch of product, obtained using the process of the present invention, having a HPLC purity exceeding 99.8% and a content of the impurities of formulas (II), (III), (IV), (V), (VI) or (VII) of less than 0.10%, calculated as HPLC Area %, and completely free of impurities of formula (VIII) and (IX). Some of the samples taken were also micronized to reduce the particle size, both the samples directly taken from the sample batch and the micronized samples have been subjected to stability studies under various temperature and humidity conditions for up to 90 days.
An example of the conditions used in the stability studies were 40° C. with 75% relative humidity and 25° C. with 60% relative humidity.

[2] = Fesoterodine fumarate obtained as disclosed in EP 2 251 318 (prior art); cited from earlier work

## CC(C)C(=O)Oc1ccc(CO)cc1[C@H](CCN(C(C)C)C(C)C)c1ccccc1 [Fesoterodine fumarate, (R)-2-(3-diisopropylamino-1-phenylpropyl)-4-(hydroxymethyl)phenol isobutyrate]
[1]; HPLC analysis, any of the conditions used, up to 90 days, e.g. 40° C./75% RH and 25° C./60% RH
  formation of impurities of formula (VIII) and/or (IX): has not shown the formation
[1]; after 90 days under various temperature and humidity conditions
  increase in the content of impurities of formula (VI), (VII), (VIII) or (IX) over time: did not show any increase
[1]; micronized, maintained for 3 months at 4° C.
  stability of micronized sample on storage: completely unaltered
[1]; stability studies up to 90 days, e.g. 40° C. with 75% relative humidity and 25° C. with 60% relative humidity, batch samples and micronized samples
  impurities content of formula (VI) and/or (VII): less than 0.10 % (HPLC Area %)
[2]
  impurity of formula (VI) generated over time: > 1%
